For data set [1], the system named is Staphylococcus aureus. Put plainly: Antibacterial activity against methicillin resistant Staphylococcus aureus ATCC 43300 persisters assessed as reduction in colony formation at 40 ug/ml incubated for 8 hrs by colony counting method. Format: functional, organism-based. The conditions noted are these: dose 40.0 µg/ml.
The subject of data set [2] is Pseudomonas aeruginosa. Briefly: Antibacterial activity against Pseudomonas aeruginosa ATCC27853 assessed as reduction in microbial growth after 16 to 18 hrs by microbroth dilution method. It is filed as functional. The following applies: time 16-18 hrs. In general terms: Dilution methods test growth across graded concentrations, often in twofold steps.
For data set [3], the system named is Escherichia coli. Put plainly: Antibacterial activity against Escherichia coli ATCC25922 assessed as reduction in microbial growth after 16 to 18 hrs by microbroth dilution method. It is filed as functional. The following applies: ATCC 25922, time 16-18 hrs.
The subject of data set [4] is Staphylococcus aureus. Put plainly: Antibacterial activity against methicillin resistant Staphylococcus aureus ATCC515992 assessed as reduction in microbial growth after 16 to 18 hrs by microbroth dilution method. It is filed as functional. The conditions noted are these: time 16-18 hrs.
Data set [5] relates to Staphylococcus aureus. Briefly: Antibacterial activity against methicillin resistant Staphylococcus aureus ATCC 62202 assessed as reduction in microbial growth after 16 to 18 hrs by microbroth dilution method. The conditions noted are these: time 16-18 hrs. Format: functional.
The subject of data set [6] is Staphylococcus aureus. Briefly: Antibacterial activity against methicillin resistant Staphylococcus aureus ATCC48073 assessed as reduction in microbial growth after 16 to 18 hrs by microbroth dilution method. The conditions noted are these: time 16-18 hrs. Format: functional.
Data set [7] has as its system L02. Put plainly: Cytotoxicity against human L02 cells assessed as cell viability at 10 ug/ml measured after 24 hrs by MTT assay. It is filed as cell-based. The following applies: l02, 24 h, dose 10 µg/ml. (In general: Tetrazolium assays rely on reduction of a dye to a coloured formazan, in cell work by metabolically active cells.)
Data set [8] relates to Staphylococcus aureus. Briefly: Antibacterial activity against methicillin resistant Staphylococcus aureus ATCC 43300 assessed as reduction in microbial growth after 16 to 18 hrs by microbroth dilution method. The following applies: time 16-18 hrs. Format: functional.
The subject of data set [9] is Staphylococcus aureus. Briefly: Antibacterial activity against Staphylococcus aureus ATCC 25923 assessed as reduction in microbial growth after 16 to 18 hrs by microbroth dilution method. The conditions noted are these: time 16-18 hrs. Format: functional.
In data set [10] the test system is Staphylococcus aureus. Put plainly: Antibacterial activity against methicillin resistant Staphylococcus aureus ATCC48966 assessed as reduction in microbial growth after 16 to 18 hrs by microbroth dilution method. It is filed as functional. The following applies: time 16-18 hrs.
The subject of data set [11] is Staphylococcus aureus. Briefly: Antibacterial activity against methicillin resistant Staphylococcus aureus ATCC49800 assessed as reduction in microbial growth after 16 to 18 hrs by microbroth dilution method. The following applies: time 16-18 hrs. It is filed as functional.
In data set [12] the test system is Enterococcus faecalis. Briefly: Antibacterial activity against Enterococcus faecalis ATCC29212 assessed as reduction in microbial growth after 16 to 18 hrs by microbroth dilution method. The conditions noted are these: ATCC 29212, time 16-18 hrs. It is filed as functional.
For data set [13], the system named is Staphylococcus aureus. Put plainly: Antibacterial activity against methicillin resistant Staphylococcus aureus ATCC 52056 assessed as reduction in microbial growth after 16 to 18 hrs by microbroth dilution method. It is filed as functional. The conditions noted are these: time 16-18 hrs.
The subject of data set [14] is Staphylococcus aureus. Briefly: Antibacterial activity against methicillin resistant Staphylococcus aureus ATCC513045 assessed as reduction in microbial growth after 16 to 18 hrs by microbroth dilution method. Format: functional. The following applies: time 16-18 hrs.
Data set [15] deals with Staphylococcus aureus. Put plainly: Antibacterial activity against methicillin resistant Staphylococcus aureus ATCC49025 assessed as reduction in microbial growth after 16 to 18 hrs by microbroth dilution method. It is filed as functional. The conditions noted are these: time 16-18 hrs.
The subject of data set [16] is Staphylococcus aureus. Put plainly: Antibacterial activity against methicillin resistant Staphylococcus aureus ATCC49008 assessed as reduction in microbial growth after 16 to 18 hrs by microbroth dilution method. The following applies: time 16-18 hrs. It is filed as functional.
Data set [17] relates to Staphylococcus aureus. Briefly: Antibacterial activity against methicillin resistant Staphylococcus aureus ATCC48706 assessed as reduction in microbial growth after 16 to 18 hrs by microbroth dilution method. Format: functional. The conditions noted are these: time 16-18 hrs.
For data set [18], the system named is RAW264.7. Briefly: Cytotoxicity against mouse RAW264.7 cells assessed as cell viability at 10 ug/ml measured after 24 hrs by MTT assay. The following applies: raw264.7, 24 h, dose 10 µg/ml. It is filed as cell-based.

The source made the active and inactive calls. The calls are words filed in the database; no cut-off is given here. Where only a bound is given, the exact number is not on record here.

What is called MIC is the lowest concentration found to suppress growth.

Regarding `O=C(O)c1cn(C2CC2)c2cc(N3CCNCC3)c(F)cc2c1=O`, in data set [1], the outcome was inactive.

Turning to `CC(C)=CCc1c(OC2CCCC2)cc(/C=C/c2ccc(C(F)(F)F)cc2)c(C(=O)O)c1O`, the MIC in data set [2] is more than 32 µg/mL; in data set [3], more than 32 µg/mL; in data set [4] it was 2 µg/mL; in data set [5], 2 µg/mL; in [6], 2 µg/mL; in data set [8] it was 2 µg/mL. Moreover, the MIC was 2 µg/mL in data set [9]; 2 µg/mL in data set [10]; 2 µg/mL in data set [11]; more than 32 µg/mL in data set [12]; 2 µg/mL in [13]; 2 µg/mL in data set [14]. The MIC in data set [15], in [16] and in data set [17] was 2 µg/mL each time. The Activity result in [7] and in data set [18] was “Toxic” in each case.

For the compound `CCOc1cc(/C=C/c2ccc(C(F)(F)F)cc2)c(C(=O)O)c(O)c1CC=C(C)C`, the MIC in [2] was more than 32 µg/mL; in [3], more than 32 µg/mL; in [4] it was 2 µg/mL; in [5], 1 µg/mL; in data set [6], 2 µg/mL; in data set [8] it was 1 µg/mL. Also, the MIC in [9] is 2 µg/mL; in [10], 2 µg/mL; in data set [11] it was 2 µg/mL; in data set [12] it was more than 32 µg/mL; in data set [13], 1 µg/mL; in data set [14], 2 µg/mL. In addition, the MIC in data set [15], in data set [16] and in data set [17] was 2 µg/mL throughout. Further, the Activity result in data set [7] and in data set [18] was “Toxic” in each case.

As to `CCOc1cc(/C=C/c2ccc(F)cc2)c(C(=O)O)c(O)c1CC=C(C)C`, the minimal inhibitory concentration (MIC) is more than 32 µg/mL in data set [2]; more than 32 µg/mL in data set [3]; 4 µg/mL in data set [4]; 4 µg/mL in data set [5]; 4 µg/mL in data set [6]; 2 µg/mL in [8]. The minimal inhibitory concentration (MIC) was 4 µg/mL in data set [9]; 4 µg/mL in data set [10]; 8 µg/mL in data set [11]; more than 32 µg/mL in [12]; 2 µg/mL in data set [13]; 4 µg/mL in data set [14]. Besides, the MIC in data set [15], in [16] and in data set [17] was 4 µg/mL each time. Besides, the Activity result in data set [7] and in data set [18] was “Toxic” each time.

Consider `CC(C)=CCc1c(OCCCF)cc(/C=C/c2ccc(F)cc2)c(C(=O)O)c1O`, for which the MIC in data set [2] was more than 32 µg/mL; in data set [3] it was more than 32 µg/mL; in [4] it was 4 µg/mL; in data set [5], 4 µg/mL; in data set [6] it was 4 µg/mL; in data set [8], 4 µg/mL. The MIC was 4 µg/mL in [9]; 4 µg/mL in data set [10]; 4 µg/mL in data set [11]; more than 32 µg/mL in data set [12]; 2 µg/mL in data set [13]; 4 µg/mL in data set [14]. Also, the MIC in data set [15], in data set [16] and in [17] was 4 µg/mL throughout. The Activity result in [7] and in [18] was “Toxic” each time.

For the compound `CC(C)=CCc1c(OCCCC(F)(F)F)cc(/C=C/c2ccc(F)cc2)c(C(=O)O)c1O`, the minimum inhibitory concentration (MIC) in data set [2] is more than 32 µg/mL; in data set [3] it was more than 32 µg/mL; in data set [4] it was 4 µg/mL; in data set [5], 4 µg/mL; in data set [6] it was 4 µg/mL; in [8], 4 µg/mL. Moreover, the MIC was 4 µg/mL in data set [9]; 4 µg/mL in [10]; 4 µg/mL in data set [11]; more than 32 µg/mL in data set [12]; 4 µg/mL in [13]; 4 µg/mL in data set [14]. The MIC in data set [15], in data set [16] and in [17] was 4 µg/mL in each case. The Activity entry in data set [7] and in data set [18] was “Toxic” in each case.

Source of the values: ChEMBL document CHEMBL4828717, “Synthetic cajaninstilbene acid derivatives eradicate methicillin-resistant Staphylococcus aureus persisters and biofilms” (Eur J Med Chem, 2021).
